In article PMC6956259, “Mechanistic Evaluation of Enhanced Curcumin Delivery through Human Skin In Vitro from Optimised Nanoemulsion Formulations Fabricated with Different Penetration Enhancers” (Pharmaceutics, 2019):
Where two headings read alike, the source gives them in different places.

Legend:
[1] = cited from earlier work
[2] = Stability of curcumin in the receptor medium; format: physicochemical; conditions: 6% Volpo in water, 35 °C, at 0, 1, 6, 12 and 24 h
Protocol: Standard solutions of curcumin (5, 10, 12.5 and 25 µg/mL) were prepared in a 6% Volpo aqueous solution and stored at 35 ± 0.5 °C for 24 h. Samples removed at 1, 6, 12 and 24 h were assayed for drug content by HPLC.

Amount of curcumin remaining [2] [%] | SMILES | log P [1] | log P ([1]; no reference given)
– | CCCCOC(=O)c1ccc(O)cc1 [butyl paraben, reference compound] | 3.6 | –
> 99 | COc1cc(/C=C/C(=O)CC(=O)/C=C/c2ccc(O)c(OC)c2)ccc1O [curcumin, Curcumin] | – | 3.6
